Biological target: T1, FimH-CRD (Escherichia coli, UniProt P08191)
T1 construct: The first 177 amino acids of the FimH protein; thrombin tag (printed as 'fusion protein with thrombin') (cleaved yes); made in house; host or cells: bacteria (pET21b plasmid)
Assay: Competitive binding assay by fluorescence polarization, assay 2 (compounds prepared by robotics, plates frozen and thawed)
Protocol: The first 177 amino acids of the FimH protein were expressed as a fusion protein with thrombin in a pET21b plasmid in bacteria. This FimH protein sequence contains the carbohydrate recognition domain (CRD) and shall be termed FimH-CRD. Following bacterial expression of the protein, the FimH-CRD protein was purified to homogeneity and the thrombin tag removed by protease cleavage. A competitive binding assay by fluorescence polarization was performed using 5 nM of the Alexa 647 mannoside probe and 60 nM of the FimH-CRD. The samples are assayed in a low volume 384 well microtiter plate in a final volume of 20 μl. The final assay buffer conditions are the following, 50 mM Tris-Cl, ph 7.0, 100 mM NaCl, 1 mM EDTA, 5 mM β-mercaptoethanol, 0.05% BSA and 2.5% DMSO. Two assays are performed for FimH, termed assay 1 or assay 2. The assay conditions are the same for both assays except the following: assay 1 has compounds prepared by manual dilution in a serial dilution factor with 12-point dose response while assay 2 has compounds prepared by a robotics system also through a serial dilution factor (12 point dose response) and initially prepared in duplicate in 384 well-Corning polypropylene round bottom plates. The assay 2 plates have compound which is then frozen and must be thawed prior to use. Initially the Alexa 647 probe and the FimH-CRD are added to the assay buffer and then 0.5 μl of test compound (assay 1 or 2) between 0.4 nM to 75 μM final concentration are added (12 point titration with 3-fold serial dilution). Control wells for the Alexa 647 probe are prepared with the same conditions except for the addition of the FimH-CRD protein. Plates are then incubated for 5 hrs at room temperature in the dark and under humid conditions to prevent drying. Plates are read using the SpectraMax Paradigm multi-mode plate reader and the appropriate fluorescent polarization detection cartridge (Alexa-647).
Alexa 647 mannoside probe is prepared using the similar procedure reported for FAM mannoside (Han, Z. et. al., 2010, J. Med. Chem., 53, 4779) and is described in the scheme below.
To a blue colored stirred solution of (2S,3S,4S,5S,6R)-2-(4-aminobutoxy)-6-(hydroxymethyl)tetrahydropyran-3,4,5-triol (2.21 mg, 0.009 mmol) and the (2E)-2-[(2E,4E)-5-[3,3-dimethyl-5-sulfonato-1-(3-sulfonatopropyl)indol-1-ium-2-yl]penta-2,4-dienylidene]-3-[6-(2,5-dioxopyrrolidin-1-yl)oxy-6-oxo-hexyl]-3-methyl-1-(3-sulfonatopropyl)indoline-5-sulfonate (Potassium Ion (3)) (4.9 mg, 0.0044 mmol) in DMF (44 μL) is added Et3N (5.4 mg, 7.0 μL, 0.053 mmol) at RT. The solution is stirred at room temperature over night, concentrated, dissolved in water and purified on 12 g C-18 silica gel cartridge on Isolera system using acetonitrile in water (0 to 40%, 10 CV) and followed by lyophilization to afford Alexa 647 mannoside probe (3.3 mg, 34%) as deep blue solid.
The Kd values of the compounds are determined from dose response curves using twelve concentrations per compound in duplicate. Curves are fitted to data points using Fluorescence Polarization competitive displacement analysis, and Kds are interpolated from the resulting curves using GraphPad Prism software, version […] (GraphPad software Inc., San Diego, Calif., USA).

T1 sequence (P08191 22-177): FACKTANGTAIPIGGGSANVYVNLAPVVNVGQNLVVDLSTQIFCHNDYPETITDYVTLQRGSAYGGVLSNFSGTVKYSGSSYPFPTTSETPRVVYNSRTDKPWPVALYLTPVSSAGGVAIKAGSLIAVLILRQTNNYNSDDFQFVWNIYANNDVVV

Compound | Kd [nM]
Cc1c(-c2ccc(S(C)(=O)=O)cc2)cccc1[C@H]1O[C@H](CO)[C@@H](O)[C@H](O)[C@@H]1O [Compound 109, (2R,3S,4R,5S,6R)-2-(Hydroxymethyl)-6-[2-methyl-3-(4-methylsulfonylphenyl)phenyl]tetrahydropyran-3,4,5-triol] | 14.4 ± 6.2
Cc1c(-c2cccc(S(C)(=O)=O)c2)cccc1[C@H]1O[C@H](CO)[C@@H](O)[C@H](O)[C@@H]1O [Compound 110, (2R,3S,4R,5S,6R)-2-(Hydroxymethyl)-6-[2-methyl-3-(3-methylsulfonylphenyl)phenyl]tetrahydropyran-3,4,5-triol] | 28.9 ± 4.5
CN(C)Cc1nnc(-c2ccc(-c3cccc([C@H]4O[C@H](CO)[C@@H](O)[C@H](O)[C@@H]4O)c3)cc2)o1 [Compound 113, (2R,3S,4R,5S,6R)-2-[3-[4-[5-[(Dimethylamino)methyl]-1,3,4-oxadiazol-2-yl]phenyl]phenyl]-6-(hydroxymethyl)tetrahydropyran-3,4,5-triol] | 20.7 ± 4.7
CC(C)(C)OC(=O)NCc1nnc(-c2ccc(-c3cccc([C@H]4O[C@H](CO)[C@@H](O)[C@H](O)[C@@H]4O)c3)cc2)o1 [Compound 115, tert-Butyl N-[[5-[4-[3-[(2R,3S,4R,5S,6R)-3,4,5-trihydroxy-6-(hydroxymethyl)tetrahydropyran-2-yl]phenyl]phenyl]-1,3,4-oxadiazol-2-yl]methyl]carbamate] | 24.2 ± 2.9
Cc1cnc(-c2ccc(-c3cccc([C@H]4O[C@H](CO)[C@@H](O)[C@H](O)[C@@H]4O)c3)cc2)o1 [Compound 117, (2R,3S,4R,5S,6R)-2-(hydroxymethyl)-6-[3-[4-(5-methyloxazol-2-yl)phenyl]phenyl]tetrahydropyran-3,4,5-triol] | 20.9 ± 6.7
CC(C)c1nnc(-c2ccc(-c3cccc([C@H]4O[C@H](CO)[C@@H](O)[C@H](O)[C@@H]4O)c3)cc2)o1 [Compound 118, (2R,3S,4R,5S,6R)-2-(hydroxymethyl)-6-[3-[4-(5-isopropyl-1,3,4-oxadiazol-2-yl)phenyl]phenyl]tetrahydropyran-3,4,5-triol] | 13.1 ± 0.2
OC[C@H]1O[C@H](c2cccc(-c3ccc(-c4cnco4)cc3)c2)[C@@H](O)[C@@H](O)[C@@H]1O [Compound 119, (2R,3S,4R,5S,6R)-2-(hydroxymethyl)-6-[3-(4-oxazol-5-ylphenyl)phenyl]tetrahydropyran-3,4,5-triol] | 19.5 ± 8.8
OC[C@H]1O[C@H](c2cccc(-c3ccc(-c4nnc(-c5ccccn5)o4)cc3)c2)[C@@H](O)[C@@H](O)[C@@H]1O [Compound 120, (2R,3S,4R,5S,6R)-2-(hydroxymethyl)-6-[3-[4-[5-(2-pyridyl)-1,3,4-oxadiazol-2-yl]phenyl]phenyl]tetrahydropyran-3,4,5-triol] | 12.8 ± 2.1
Cc1ccc(-c2nnc(-c3ccc(-c4cccc([C@H]5O[C@H](CO)[C@@H](O)[C@H](O)[C@@H]5O)c4)cc3)o2)o1 [Compound 121, (2R,3S,4R,5S,6R)-2-(hydroxymethyl)-6-[3-[4-[5-(5-methyl-2-furyl)-1,3,4-oxadiazol-2-yl]phenyl]phenyl]tetrahydropyran-3,4,5-triol] | 13.1 ± 0.9
Cn1ccc(-c2ccc(-c3cccc([C@H]4O[C@H](CO)[C@@H](O)[C@H](O)[C@@H]4O)c3)cc2)n1 [Compound 122, (2R,3S,4R,5S,6R)-2-(hydroxymethyl)-6-[3-[4-(1-methylpyrazol-3-yl)phenyl]phenyl]tetrahydropyran-3,4,5-triol] | 27.6 ± 7.4
Cc1nnc(-c2cccc(-c3cccc([C@H]4O[C@H](CO)[C@@H](O)[C@H](O)[C@@H]4O)c3)c2)o1 [Compound 123, (2R,3S,4R,5S,6R)-2-(hydroxymethyl)-6-[3-[3-(5-methyl-1,3,4-oxadiazol-2-yl)phenyl]phenyl]tetrahydropyran-3,4,5-triol] | 37.1 ± 8.5
Cn1nccc1-c1ccc(-c2cccc([C@H]3O[C@H](CO)[C@@H](O)[C@H](O)[C@@H]3O)c2)cc1 [Compound 124, (2R,3S,4R,5S,6R)-2-(hydroxymethyl)-6-[3-[4-(2-methylpyrazol-3-yl)phenyl]phenyl]tetrahydropyran-3,4,5-triol] | 16.2 ± 2
Cc1nnc(-c2ccc(-c3cccc([C@H]4O[C@H](CO)[C@@H](O)[C@H](O)[C@@H]4O)c3)c(C)c2)o1 [Compound 125, (2R,3S,4R,5S,6R)-2-(hydroxymethyl)-6-[3-[2-methyl-4-(5-methyl-1,3,4-oxadiazol-2-yl)phenyl]phenyl]tetrahydropyran-3,4,5-triol] | 13.9 ± 2.6
COc1cc(-c2cccc([C@H]3O[C@H](CO)[C@@H](O)[C@H](O)[C@@H]3O)c2)ccc1-c1nnc(C)o1 [Compound 127, (2R,3S,4R,5S,6R)-2-(hydroxymethyl)-6-[3-[3-methoxy-4-(5-methyl-1,3,4-oxadiazol-2-yl)phenyl]phenyl]tetrahydropyran-3,4,5-triol] | 17.4 ± 4.8
COc1cc(-c2nnc(C)o2)ccc1-c1cccc([C@H]2O[C@H](CO)[C@@H](O)[C@H](O)[C@@H]2O)c1 [Compound 128, (2R,3S,4R,5S,6R)-2-(hydroxymethyl)-6-[3-[2-methoxy-4-(5-methyl-1,3,4-oxadiazol-2-yl)phenyl]phenyl]tetrahydropyran-3,4,5-triol] | 74.7 ± 60.4
Cc1nnc(-c2ccc(-c3ccc([C@H]4O[C@H](CO)[C@@H](O)[C@H](O)[C@@H]4O)cc3)cc2)o1 [Compound 129, (2R,3S,4R,5S,6R)-2-(hydroxymethyl)-6-[4-[4-(5-methyl-1,3,4-oxadiazol-2-yl)phenyl]phenyl]tetrahydropyran-3,4,5-triol] | 22.9 ± 5.4
CNC(=O)c1cc(/C=C\c2cccc([C@H]3O[C@H](CO)[C@@H](O)[C@H](O)[C@@H]3O)c2)cc(C(=O)NC)c1 [Compound 135] | 22.3 ± 9.8
CNC(=O)c1cc(/C=C/c2cccc([C@H]3O[C@H](CO)[C@@H](O)[C@H](O)[C@@H]3O)c2)cc(C(=O)NC)c1 [Compound 136] | 19.2 ± 3.6
OC[C@H]1O[C@H](c2cccc(/C=C\c3cc(Cl)cc(Cl)c3)c2)[C@@H](O)[C@@H](O)[C@@H]1O [Compound 137, (2R,3S,4R,5S,6R)-2-[3-[(Z)-2-(3,5-dichlorophenyl)vinyl]phenyl]-6-(hydroxymethyl)tetrahydropyran-3,4,5-triol] | 29.9 ± 15.2
OC[C@H]1O[C@H](c2cccc(/C=C/c3cc(Cl)cc(Cl)c3)c2)[C@@H](O)[C@@H](O)[C@@H]1O [Compound 138, (2R,3S,4R,5S,6R)-2-[3-[(E)-2-(3,5-dichlorophenyl)vinyl]phenyl]-6-(hydroxymethyl)tetrahydropyran-3,4,5-triol] | 32.9 ± 6.3
OC[C@H]1O[C@H](c2cccc(/C=C/c3ccccc3)c2)[C@@H](O)[C@@H](O)[C@@H]1O [Compound 140, (2R,3S,4R,5S,6R)-2-(hydroxymethyl)-6-[3-[(E)-styryl]phenyl]tetrahydropyran-3,4,5-triol] | 15.3 ± 3.5
CNC(=O)c1ccc(-c2cccc([C@H]3O[C@H](CO)[C@@H](O)[C@H](O)[C@@H]3O)c2)cc1-n1cncn1 [Compound 141, N-methyl-2-(1,2,4-triazol-1-yl)-4-[3-[(2R,3S,4R,5S,6R)-3,4,5-trihydroxy-6-(hydroxymethyl)tetrahydropyran-2-yl]phenyl]benzamide] | 56.2 ± 20
COCc1cc(-c2cccc([C@H]3O[C@H](CO)[C@@H](O)[C@H](O)[C@@H]3O)c2)ccc1-c1nnc(C)o1 [Compound 142, (2R,3S,4R,5S,6R)-2-(hydroxymethyl)-6-[3-[3-(methoxymethyl)-4-(5-methyl-1,3,4-oxadiazol-2-yl)phenyl]phenyl]tetrahydropyran-3,4,5-triol] | 14.8 ± 5.9
Cc1nnc(-c2ccc(-c3cccc([C@H]4O[C@H](CO)[C@@H](O)[C@H](O)[C@@H]4O)c3)cc2O)o1 [Compound 143, (2R,3S,4R,5S,6R)-2-(hydroxymethyl)-6-[3-[3-hydroxy-4-(5-methyl-1,3,4-oxadiazol-2-yl)phenyl]phenyl]tetrahydropyran-3,4,5-triol] | 11.2 ± 1
